The values below come from patent publication US11702404B2, “GLP-1R modulating compounds” (priority 2019, dated 2023).

A word on the pEC50: it is −log10 of the EC50, conventionally taken in molar units.

Data set [1] in a line: Microsomal stability, human liver microsomes (predicted hepatic clearance). Conditions: predicted from in vitro microsomal stability data.
A further data set deals with GLP-1R (Homo sapiens, UniProt P43220). The experiment in a line: GLP-1R activation: cAMP increase in CHO cells stably expressing GLP-1R. The class given is cell-based. To be noted: read-out: EC50.
The mark [2] stands for this setting: cAMP increase, CHO cells stably expressing GLP-1R, 10 point dose response, 30 minutes incubation.

pEC50: −log10 of the molar value. Like-named read-outs stand apart in the source and are kept apart here.

GLP-1R, sequence (P43220 24-463): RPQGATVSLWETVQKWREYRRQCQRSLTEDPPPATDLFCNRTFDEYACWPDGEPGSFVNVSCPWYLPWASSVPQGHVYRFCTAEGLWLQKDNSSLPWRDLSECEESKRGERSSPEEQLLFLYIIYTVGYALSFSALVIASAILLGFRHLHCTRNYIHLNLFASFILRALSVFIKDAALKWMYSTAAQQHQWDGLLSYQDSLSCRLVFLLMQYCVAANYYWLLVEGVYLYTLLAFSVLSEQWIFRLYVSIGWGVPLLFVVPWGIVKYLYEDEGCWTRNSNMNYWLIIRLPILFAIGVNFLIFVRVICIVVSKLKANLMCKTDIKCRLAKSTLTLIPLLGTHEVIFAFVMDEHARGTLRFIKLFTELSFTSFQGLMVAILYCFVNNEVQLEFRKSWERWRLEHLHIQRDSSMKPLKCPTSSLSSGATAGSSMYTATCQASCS

Consider `N#Cc1ccc(COc2cccc(-c3ccc(Cc4nc5cc(C(=O)O)ccc5n4CC4(CF)CC4)c(F)c3)n2)c(F)c1` [Example 552, 2-(4-(6-((4-Cyano-2-fluorobenzyl)oxy)pyridin-2-yl)-2-fluorobenzyl)-1-((1-(fluoromethyl)cyclopropyl)methyl)-1H-benzo[d]imidazole-5-carboxylic acid], for which the “Predicted Hepatic Clearance (Pred. Cl.)” value in data set [1] is under 1.83 mL/min/kg. Moreover, the pEC50 on GLP-1R (setting [2]) was 7.74.
Consider `COCCn1c(Cc2ccc(-c3cccc(OCc4ccc(C#N)cc4F)n3)cc2F)nc2cc(C(=O)O)ccc21` [Example 553, 2-(4-(6-((4-cyano-2-fluorobenzyl)oxy)pyridin-2-yl)-2-fluorobenzyl)-1-(2-methoxyethyl)-1H-benzo[d]imidazole-5-carboxylic acid], for which the “Predicted Hepatic Clearance (Pred. Cl.)” value in data set [1] was 4.17 mL/min/kg. At GLP-1R (setting [2]), the pEC50 is 7.70.
With `COCCn1c(Cc2cc(F)c(-c3cccc(OCc4ccc(C(N)=O)cc4F)n3)cc2F)nc2ccc(C(=O)O)cc21` [Example 554, 2-(4-(6-((4-carbamoyl-2-fluorobenzyl)oxy)pyridin-2-yl)-2,5-difluorobenzyl)-1-(2-methoxyethyl)-1H-benzo[d]imidazole-6-carboxylic acid], the “Predicted Hepatic Clearance (Pred. Cl.)” value in data set [1] is 4.17 mL/min/kg. Besides, on GLP-1R (setting [2]), the pEC50 was 7.32.
On the same counts, the results for `COCCn1c(Cc2ccc(-c3cccc(OCc4ccc(C#N)cc4F)n3)cc2F)nc2ccc(P(=O)(O)O)cc21` [Example 555, (2-(4-(6-((4-cyano-2-fluorobenzyl)oxy)pyridin-2-yl)-2-fluorobenzyl)-1-(2-methoxyethyl)-1H-benzo[d]imidazol-6-yl)phosphonic acid] are 1.83 mL/min/kg and 7.24.
On the same counts, the results for `COCCn1c(Cc2cc(F)c(-c3cccc(OCc4ccc(C(F)(F)F)cc4F)n3)cc2F)nc2ccc(C(=O)O)cc21` [Example 557, 2-(2,5-difluoro-4-(6-((2-fluoro-4-(trifluoromethyl)benzyl)oxy)pyridin-2-yl)benzyl)-1-(2-methoxyethyl)-1H-benzo[d]imidazole-6-carboxylic acid] are 2.17 mL/min/kg and 9.33.
On the same counts, the results for `COCCn1c(Cc2ccc(-c3ccnc(OCc4ccc(C#N)cc4F)n3)c(F)c2)nc2c(F)cc(C(=O)O)cc21` [Example 558, 2-(4-(2-((4-cyano-2-fluorobenzyl)oxy)pyrimidin-4-yl)-3-fluorobenzyl)-4-fluoro-1-(2-methoxyethyl)-1H-benzo[d]imidazole-6-carboxylic acid] are 4 mL/min/kg and 7.65.
In the case of `COC[C@H](C)n1c(Cc2cc(F)c(-c3cccc(OCc4ccc(C#N)cc4F)n3)cc2F)nc2ccc(C(=O)O)cc21` [Example 559, (S)-2-(4-(6-((4-cyano-2-fluorobenzyl)oxy)pyridin-2-yl)-2,5-difluorobenzyl)-1-(1-methoxypropan-2-yl)-1H-benzo[d]imidazole-6-carboxylic acid], in data set [1], the “Predicted Hepatic Clearance (Pred. Cl.)” value is 6.83 mL/min/kg. On GLP-1R (setting [2]), the pEC50 is 8.58.
On the same counts, the results for `COC[C@@H](C)n1c(Cc2cc(F)c(-c3cccc(OCc4ccc(C#N)cc4F)n3)cc2F)nc2ccc(C(=O)O)cc21` [Example 560, (R)-2-(4-(6-((4-cyano-2-fluorobenzyl)oxy)pyridin-2-yl)-2,5-difluorobenzyl)-1-(1-methoxypropan-2-yl)-1H-benzo[d]imidazole-6-carboxylic acid] are 5.83 mL/min/kg and 8.72.
Regarding `N#Cc1ccc(COc2cccc(-c3cc(F)c(Cc4nc5ccc(C(=O)O)cc5n4CCN4CCOCC4)cc3F)n2)c(F)c1` [Example 561, 2-(4-(6-((4-cyano-2-fluorobenzyl)oxy)pyridin-2-yl)-2,5-difluorobenzyl)-1-(2-morpholinoethyl)-1H-benzo[d]imidazole-6-carboxylic acid], the “Predicted Hepatic Clearance (Pred. Cl.)” value in data set [1] was 9.5 mL/min/kg. Besides, the pEC50 on GLP-1R was 7.62.
As for `COCCn1c(Cc2cc(F)c(-c3cccc(OCc4ccc(Cl)cc4F)n3)cc2F)nc2ccc(C(=O)O)cc21` [Example 563, 2-(4-(6-((4-chloro-2-fluorobenzyl)oxy)pyridin-2-yl)-2,5-difluorobenzyl)-1-(2-methoxyethyl)-1H-benzo[d]imidazole-6-carboxylic acid], the “Predicted Hepatic Clearance (Pred. Cl.)” value in data set [1] was 3.67 mL/min/kg. In addition, at GLP-1R (setting [2]), the pEC50 was 9.00.
On the same counts, the results for `COCCn1c(Cc2cc(F)c(-c3cccc(OCc4cc(F)c(Cl)cc4F)n3)cc2F)nc2ccc(C(=O)O)cc21` [Example 564, 2-(4-(6-((4-chloro-2,5-difluorobenzyl)oxy)pyridin-2-yl)-2,5-difluorobenzyl)-1-(2-methoxyethyl)-1H-benzo[d]imidazole-6-carboxylic acid] are 3.42 mL/min/kg and 8.71.
Taken in the same sequence, the figures for `COCCn1c(Cc2cc(F)c(-c3cccc(OCc4cc(F)c(C#N)cc4F)n3)cc2F)nc2ccc(C(=O)O)cc21` [Example 565, 2-(4-(6-((4-cyano-2,5-difluorobenzyl)oxy)pyridin-2-yl)-2,5-difluorobenzyl)-1-(2-methoxyethyl)-1H-benzo[d]imidazole-6-carboxylic acid] were 6 mL/min/kg and 8.31.
On the same counts, the results for `CO[C@H]1C[C@H](n2c(Cc3cc(F)c(-c4cccc(OCc5ccc(C#N)cc5F)n4)cc3F)nc3ccc(C(=O)O)cc32)C1` [Example 567, 2-(4-(6-((4-cyano-2-fluorobenzyl)oxy)pyridin-2-yl)-2,5-difluorobenzyl)-1-((1r,3r)-3-methoxycyclobutyl)-1H-benzo[d]imidazole-6-carboxylic acid] are 7.67 mL/min/kg and 5.95.
With `N#Cc1ccc(COc2cccc(-c3cc(F)c(Cc4nc5ccc(C(=O)O)cc5n4Cc4cnns4)cc3F)n2)c(F)c1` [Example 569, 1-((1,2,3-thiadiazol-5-yl)methyl)-2-(4-(6-((4-cyano-2-fluorobenzyl)oxy)pyridin-2-yl)-2,5-difluorobenzyl)-1H-benzo[d]imidazole-6-carboxylic acid], the “Predicted Hepatic Clearance (Pred. Cl.)” value in data set [1] was 17 mL/min/kg. Besides, the pEC50 at GLP-1R (setting [2]) was 7.98.
For `N#Cc1ccc(COc2cccc(-c3cc(F)c(Cc4nc5ccc(C(=O)O)cc5n4CC45CC(CO4)C5)cc3F)n2)c(F)c1` [Example 574], the “Predicted Hepatic Clearance (Pred. Cl.)” value in data set [1] was 1.92 mL/min/kg. In addition, the pEC50 on GLP-1R (setting [2]) is 9.20.
On the same counts, the results for `N#Cc1ccc(COc2cccc(-c3cc(F)c(Cc4nc5ccc(C(=O)O)cc5n4CC45CC(C#N)(CO4)C5)cc3F)n2)c(F)c1` [Example 575, 2-(4-(6-((4-cyano-2-fluorobenzyl)oxy)pyridin-2-yl)-2,5-difluorobenzyl)-1-((4-cyano-2-oxabicyclo[2.1.1]hexan-1-yl)methyl)-1H-benzo[d]imidazole-6-carboxylic acid] are 8.67 mL/min/kg and 7.43.
For the molecule `N#Cc1ccc(COc2cccc(-c3cc(F)c(Cc4nc5ccc(C(=O)O)cc5n4Cc4nncs4)cc3F)n2)c(F)c1` [Example 576, 1-((1,3,4-thiadiazol-2-yl)methyl)-2-(4-(6-((4-cyano-2-fluorobenzyl)oxy)pyridin-2-yl)-2,5-difluorobenzyl)-1H-benzo[d]imidazole-6-carboxylic acid], the “Predicted Hepatic Clearance (Pred. Cl.)” value in data set [1] is 8 mL/min/kg. At GLP-1R (setting [2]), the pEC50 is 9.07.
Taken in the same sequence, the figures for `N#Cc1ccc(COc2cccc(-c3cc(F)c(Cc4nc5ccc(C(=O)O)cc5n4CC4(n5ccnn5)CC4)cc3F)n2)c(F)c1` [Example 577, 1-((1-(1H-1,2,3-triazol-1-yl)cyclopropyl)methyl)-2-(4-(6-((4-cyano-2-fluorobenzyl)oxy)pyridin-2-yl)-2,5-difluorobenzyl)-1H-benzo[d]imidazole-6-carboxylic acid] were 7.5 mL/min/kg and 9.40.
In the case of `Cn1ncnc1Cn1c(Cc2cc(F)c(-c3cccc(OCc4ccc(C#N)cc4F)n3)cc2F)nc2ccc(C(=O)O)cc21` [Example 578, 2-(4-(6-((4-cyano-2-fluorobenzyl)oxy)pyridin-2-yl)-2,5-difluorobenzyl)-1-((1-methyl-1H-1,2,4-triazol-5-yl)methyl)-1H-benzo[d]imidazole-6-carboxylic acid], the “Predicted Hepatic Clearance (Pred. Cl.)” value in data set [1] was 4.67 mL/min/kg. The pEC50 at GLP-1R (setting [2]) was 7.86.
Consider `N#Cc1ccc(COc2cccc(-c3cc(F)c(Cc4nc5ccc(C(=O)O)cc5n4Cc4ccns4)cc3F)n2)c(F)c1` [Example 579, 2-(4-(6-((4-cyano-2-fluorobenzyl)oxy)pyridin-2-yl)-2,5-difluorobenzyl)-1-(isothiazol-5-ylmethyl)-1H-benzo[d]imidazole-6-carboxylic acid], for which the “Predicted Hepatic Clearance (Pred. Cl.)” value in data set [1] was 16 mL/min/kg. In addition, the pEC50 on GLP-1R (setting [2]) is 9.46.
On the same counts, the results for `N#Cc1ccc(COc2cccc(-c3cc(F)c(Cc4nc5ccc(C(=O)O)cc5n4Cc4ccsn4)cc3F)n2)c(F)c1` [Example 580, 2-(4-(6-((4-cyano-2-fluorobenzyl)oxy)pyridin-2-yl)-2,5-difluorobenzyl)-1-(isothiazol-3-ylmethyl)-1H-benzo[d]imidazole-6-carboxylic acid] are 5.83 mL/min/kg and 8.71.
On the same counts, the results for `CC1(Cn2c(Cc3cc(F)c(-c4cccc(OCc5ccc(C#N)cc5F)n4)cc3F)nc3ccc(C(=O)O)cc32)COC1` [Example 581, 2-(4-(6-((4-cyano-2-fluorobenzyl)oxy)pyridin-2-yl)-2,5-difluorobenzyl)-1-((3-methyloxetan-3-yl)methyl)-1H-benzo[d]imidazole-6-carboxylic acid] are 6.33 mL/min/kg and 9.40.
On the same counts, the results for `N#Cc1ccc(COc2cccc(-c3cc(F)c(Cc4nc5ccc(C(=O)O)nc5n4CCOC(F)F)cc3F)n2)c(F)c1` [Example 583, 2-(4-(6-((4-cyano-2-fluorobenzyl)oxy)pyridin-2-yl)-2,5-difluorobenzyl)-3-(2-(difluoromethoxy)ethyl)-3H-imidazo[4,5-b]pyridine-5-carboxylic acid] are 10.3 mL/min/kg and 8.62.
